According to patent US6461997B1, “Triazole sulfones having herbicidal activity” (Monsanto Technology LLC, priority 1999, dated 2002):

Tests used:
SETVI (green foxtail) [1] = test: Post-emergence herbicidal activity, cool season; format: in vivo, Setaria viridis; conditions: abraded plants sprayed at 300, 100, 30 and 10 g/ha; about 14 days after treatment
Experimental: (§1) In another set of tests, the post-emergence activity of compounds of this invention was evaluated on the cool season species listed above. The following procedure was used.
(§2) A pre-prepared topsoil mixture (described above) was placed in a pot and compacted to a depth of 1.0 to 1.25 cm from the top of the pot. Seeds of each of several monocotyledonous and dicotyledonous annual plant species were placed on top of the soil. The seeds were covered with a mixture of 50% topsoil and 50% Rediearth™ in sufficient quantity to level-fill the pots. The pots were then placed on a greenhouse bench and subirrigated as needed.
(§3) When plants growing from the seeds had emerged and reached a suitable growth stage for post-emergence treatment, typically 9 to 14 days after planting, above-ground parts of the plants were subjected to a pre-treatment involving abrasion to create greater opportunity for foliar uptake of subsequently applied compounds. Abrasion was performed using garnet 200w particles applied with a Sears Craftsman hand-held sandblaster operated at approximately 850 kPa (50 psig) pressure.
(§4) A known amount of each test compound dissolved or suspended in an appropriate organic solvent was diluted with a 50:50 mix of acetone and water and applied to the plants by spraying with a standard spray nozzle in a spray volume of […] at a spray pressure of 511 kPa (30 psig). Only the compounds of Examples 1, 8-15 and 17-22 were included in post-emergence tests. Application rates for these compounds were 300, 100, 30 and 10 g/ha. Control plants were abraded but not sprayed.
(§5) After treatment the plants were placed in a greenhouse with an 18/13° C. day/night temperature regime and were subsequently watered as needed for growth. Approximately 14 days after treatment, the plants were observed and herbicidal efficacy recorded as percent inhibition by comparison with control plants. GR80 values were assigned for each compound as described above for the pre-emergence tests.

[2] = tested on: GALAP (catchweed bedstraw); test: Pre-emergence herbicidal activity, cool season; format: in vivo, Galium aparine; conditions: lowest tested rate with 80% or greater inhibition; rates 300, 100, 30, 10 g/ha; about 14 days
Procedure, shortened: (§6)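 Seeds sown in sterilised fertilised topsoil received surface-applied compound in 50:50 acetone/water, typically at 300, 100, 30 and 10 g/ha, then greenhouse-grown at 30/21° C (warm-season species) or 18/13° C (cool-season species). Percent inhibition versus untreated plants was scored at about 14 days, giving GR80; an asterisk marks activity short of 80% at the top rate.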

ECHCG (barnyardgrass) = test: Pre-emergence herbicidal activity, warm season; format: in vivo, Echinochloa crus-galli; conditions: GR80 = lowest tested rate (300, 100, 30, 10 g/ha) with 80% or greater inhibition; approx. 14 days after treating; 30/21° C.
Procedure, shortened: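 GR80 values derive from percent inhibition relative to untreated plants, read roughly 14 days after sowing and pre-emergence soil-surface treatment (compound in 50:50 acetone/water; rates typically 10, 30, 100, 300 g/ha). Warm-season weeds grew at 30/21° C day/night, cool-season ones at 18/13° C; an asterisk marks activity without reaching 80% at the highest rate.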

SETVI (green foxtail) [3] = test: Pre-emergence herbicidal activity, cool season; format: in vivo, Setaria viridis; conditions: GR80 = lowest tested rate (300, 100, 30, 10 g/ha) with 80% or greater inhibition; approx. 14 days after treating; 18/13° C.
Procedure, shortened: as §6

[4] = tested on: AGSST (creeping bentgrass); test: Post-emergence herbicidal activity, cool season; format: in vivo, Agrostis stolonifera; conditions: abraded plants sprayed at 300, 100, 30 and 10 g/ha; about 14 days after treatment
Experimental: as §1, §2, §3, §4, §5

DIGSA (large crabgrass) = test: Pre-emergence herbicidal activity, warm season; format: in vivo, Digitaria sanguinalis; conditions: GR80 = lowest tested rate (300, 100, 30, 10 g/ha) with 80% or greater inhibition; approx. 14 days after treating; 30/21° C.
Procedure, shortened: (§7)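 Read-out: GR80, derived from percent growth inhibition relative to untreated plants at roughly 14 days after planting and treatment. Compounds went onto the surface of freshly seeded soil at 10–300 g/ha. Day/night regimes were 30/21 °C for millet and crabgrass, 18/13 °C for blackgrass and buckwheat.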

[5] = tested on: PANMI (wild proso millet); test: Pre-emergence herbicidal activity, warm season; format: in vivo, Panicum miliaceum; conditions: GR80 = lowest tested rate (300, 100, 30, 10 g/ha) with 80% or greater inhibition; approx. 14 days after treating; 30/21° C.
Procedure, shortened: as §7

STEME (common chickweed) = test: Pre-plant incorporated (PPI) herbicidal activity, cool season; format: in vivo, Stellaria media; conditions: for Percent inhibition STEME: weed, PPI application; for PPI activity GR80, STEME: pre-plant incorporated, lowest tested rate with 80% or greater inhibition, about 14 days
Experimental: (§8) In another set of tests, the pre-plant incorporated (PPI) activity of compounds of this invention was evaluated on the same species as for the pre-emergence tests described above. In the PPI tests the following procedure, designed to simulate PPI application, was used.
(§9) A pre-prepared topsoil mixture (described above) was placed in a pot and compacted to a depth of 1.0 to 1.25 cm from the top of the pot. Seeds of each of several monocotyledonous and dicotyledonous annual plant species were placed on top of the soil. A sufficient quantity of soil to cover the seeds and level fill the pot was weighed into an open container. A known amount of the test compound was dissolved or suspended in an organic solvent and applied by spraying to this cover soil. The cover soil was thoroughly mixed to distribute the test compound throughout the cover soil, and was then applied as a cover layer over the seeds. Untreated soil was used as a cover layer for control pots. After treatment the plants were placed in a greenhouse where they received 0.64 cm of overhead irrigation. All subsequent watering consisted of a light overhead mist and/or subirrigation as needed for germination and growth. Tables 9 and 10 below relate to warm season plant species which were placed after pre-emergence treatment in a greenhouse with a 30/21° C. day/night temperature regime. Tables 11 and 12 below relates to cool season plant species placed after pre-emergence treatment in a greenhouse or growth chamber with an 18/13° C. day/night temperature regime. Only the compounds of Examples 1, 6, 8, 11, 13 and 15-20 were included in PPI tests.
(§10) Approximately 14 days after planting and treating, the plants were observed and herbicidal efficacy recorded as percent inhibition by comparison with untreated plants.

POLCO (wild buckwheat) = test: as above; format: in vivo, Polygonum convolvulus; conditions: for Percent inhibition POLCO: weed, PPI application; for PPI activity GR80, POLCO: pre-plant incorporated, lowest tested rate with 80% or greater inhibition, about 14 days
Experimental: as §8, §9, §10

Compound | Post-emergence activity GR80, SETVI (SETVI (green foxtail) [1]) | Pre-emergence activity GR80, GALAP [2] [g/ha] | Pre-emergence activity (GR80) ECHCG (ECHCG (barnyardgrass)) [g/ha] | Pre-emergence activity (GR80) SETVI (SETVI (green foxtail) [3]) [g/ha] | Post-emergence activity GR80, AGSST [4] | Pre-emergence activity (GR80) DIGSA (DIGSA (large crabgrass)) [g/ha] | Pre-emergence activity (GR80) PANMI [5] [g/ha] | Percent inhibition STEME (STEME (common chickweed); 30 g/ha) [%] | Percent inhibition STEME (STEME (common chickweed); 100 g/ha) [%] | Percent inhibition STEME (STEME (common chickweed); 300 g/ha) [%] | Percent inhibition STEME (STEME (common chickweed); 900 g/ha) [%] | Percent inhibition POLCO (POLCO (wild buckwheat); 30 g/ha) [%] | Percent inhibition POLCO (POLCO (wild buckwheat); 100 g/ha) [%] | Percent inhibition POLCO (POLCO (wild buckwheat); 300 g/ha) [%] | Percent inhibition POLCO (POLCO (wild buckwheat); 900 g/ha) [%] | PPI activity GR80, STEME (STEME (common chickweed)) | Percent inhibition STEME (STEME (common chickweed); 10 g/ha) [%] | PPI activity GR80, POLCO (POLCO (wild buckwheat)) | Percent inhibition POLCO (POLCO (wild buckwheat); 10 g/ha) [%]
CCN(CC)C(=O)n1cnc(S(=O)(=O)C(F)(F)C(F)(F)SC)n1 [Example 14] | [empty] | 30 | 300 | 30 | 300 g/ha | 100 | 100 |  |  |  |  |  |  |  |  |  |  |  | 
CCN(CC)C(=O)n1cnc(S(=O)(=O)C(F)(F)F)n1 [Example 2] |  | 100 | 30 | 30 |  | 300 | 30 | 60 | 90 | 80 | 95 | 40 | 40 | 65 | 100 |  |  |  | 
CCN(CC)C(=O)n1cnc(S(=O)(=O)C(F)(F)C(F)F)n1 [Example 16] |  | 100 | 100 | 300 |  | 30 | 30 | 75 | 60 | 60 | 95 | 0 | 0 | 0 | 95 | 300 g/ha | 40 | 100 g/ha | 0
CCN(CC)C(=O)n1cnc(S(=O)(=O)C(F)(F)SCCOC)n1 [Example 13] | [empty] | 100 | 300 | 100 | [empty] |  | 300 | 0 | 20 | 100 | 99 | 50 | 40 | 80 | 90 | * (activity observed, at least at highest rate, but <80% inhibition) | 0 | * (activity observed, at least at highest rate, but <80% inhibition) | 0
